The results in this text go back to patent publication US8846951B2 (AbbVie Inc., priority 2009, dated 2014).

In data set [1] the test system is SHR pups. Kind of data set: 5-trial inhibitory avoidance/impulsivity model in pups of spontaneously hypertensive rat. In kind it is in vivo. To be noted: sc 1, 3 and 10 mg/kg, acute, compared to vehicle. The source says:
(ix) 5-Trial Inhibitory Avoidance/Impulsivity Model in the Pups of Spontaneously Hypertensive Rat
However, the adult rats have spontaneous hypertension which may confound behavioral assessment. The juvenile SHRs were used in the current study since these pups show similar behavioral deficits while having not developed hypertension. The aim was to investigate the efficacy of 5-HT2c agonists in SHR pups in an inhibitory avoidance model, as indication of enhancement of inhibitory control/or anti-impulsivity.
SHR pups at postnatal day 21-28 were sc dosed with either vehicle or Example 115 (1, 3, and 10 mg/kg; dissolved in tartaric acid/PH4-6) 30 minutes prior to the test. Upon testing initiation, pups were placed into the light side of a computer controlling 2-chambered compartment. The latency to enter the adjoining dark chamber was recorded, and an inescapable footshock (0.1 mA, 1 second duration) was presented to the pup. The pup was removed, placed back into the home cage for approximately 1 minute, and the process repeated for a total of 5 trials. The dependent variable used for data analysis was the total transfer latency of trial 2 to trial 5.

Data set [2] relates to AMP- or PCP-induced hyperactivity. As to the kind of experiment: Psychostimulant (AMP or PCP)-induced hyperlocomotion in mice. In kind it is in vivo, mouse. The source says: (x) Assessment of Effects on Psychostimulant-Induced Hyperlocomotion in Mice
In both humans and experimental animals amphetamine (AMP) profoundly affects motor activity, sensorimotor function, sleep, attention, aggressive and sexual behaviors, learning and memory, operant behaviors, appetite and food intake. In addition, amphetamine induces psychotic reactions in normal individuals and exacerbates symptoms of schizophrenia in patients. In experimental animals several distinct behaviors are considered to be correlates of amphetamine psychosis. For example, amphetamine-induced hyperactivity in rodents is believed to model the psychotic symptoms of schizophrenia. Reversal of these behaviors is used to predict potential antipsychotic activity of drugs in pre-clinical studies.
In humans, phencyclidine (PCP) is known to produce a syndrome of behavioral effects which have many characteristics in common with schizophrenia. Therefore, antagonism of PCP effects might be evidence for antipsychotic efficacy of a compound.
Male NMRI mice (5-week old, Janvier, France) or C57BL/6J mice (6-week old, Janvier, France) were group housed and allowed ad-libitum access to food and water. A 12 hour light/dark cycle was imposed with lights-on period between 0530 and 1730 hours. All testing occurred between 700 and 1300 hours. All procedures were approved by Abbott Institutional Animal Care and Use Committee (USA) or Animal Welfare Officer (Germany) and were conducted in accordance with the National Institutes of Health Guide for Care and Use of Laboratory Animals guidelines and applicable national laws in the facilities accredited by the Association for the Assessment and Accreditation of Laboratory Animal Care.
On the day of experiment, animals were brought from the animal facility into the experimental room and were allowed to acclimatize for at least 30 minutes. Animals were then placed in the test cages for a habituation period of 60 minutes. The animals were then injected ip with the test compound and returned to the test cage. 30 Minutes later the mice were injected with d-amphetamine (2.0 mg/kg, AMP, Sigma, #A5880, sc) or phencyclidine (2.0 mg/kg, PCP, Sigma, #P3029, sc) Sigma, and returned to the test cages for 90 minutes. Each treatment group consisted of 8-10 animals. The data was acquired by Cage rack Photobeam system (SDI, San Diego Instruments, CA). The analyzed data were: fine movements, ambulations and total movements (fine+ambulations). Data was subjected to one- or two-way distribution-free ANOVA followed by Dunnett's and Tukey's post hoc tests.

Data set [3] concerns conditioned avoidance response (CAR) behavior. As to the kind of experiment: Conditioned avoidance responding in rats. In kind it is in vivo, rat. Particulars: male Wistar rats. Here is the method:
The fact that antipsychotics have the unique ability to selectively suppress CAR behavior, made the CAR test a useful tool for the screening of new, potentially antipsychotic compounds. […] Animals Male Wistar rats (9-11 weeks old, Charles River, Germany) were pair-housed and allowed ad-libitum access to food and water. A 12-hour light/dark cycle was imposed with lights-on period between 0530 and 1730 hours. All testing occurred between 700 and 1300 hours. All procedures were approved by Abbott Institutional Animal Care and Use Committee (USA) or Animal Welfare Officer (Germany) and were conducted in accordance with the National Institutes of Health Guide for Care and Use of Laboratory Animals guidelines and applicable national laws in the facilities accredited by the Association for the Assessment and Accreditation of Laboratory Animal Care. Methods Wistar rats are exposed to a conditioned stimulus CS (a 2.9-kHz tone of 10 second duration), which is a signal for the animal that it must move into the other chamber in order to avoid an immediately ensuing footshock US (0.5 mA, 10 second, tone continues during shock presentation). Once the shock has begun, the animal can still escape it by moving to the other chamber. Each session is limited to a maximum of 40 trials (intertrial interval 10-90 seconds). The animals generally learn quickly to change chambers upon the conditioned stimulus and thus avoid further shocks. Scored are: • Avoided responses=crossings into other compartment within 10 seconds of tone presentation; • Escaped responses=crossings between 10-20 seconds of tone presentation; • Failures=crossings after cessation of tone-shock presentation or no crossing. […] At the test sessions (=CS-shock pairings), animals are pre-treated with a test drug or vehicle 30 minutes before commencement of the session.

Data set [4] concerns MK-801-induced deficits in inhibitory avoidance. As to the kind of experiment: 24-hour inhibitory avoidance in mouse (MK-801-induced deficit). In kind it is in vivo. Particulars: CD1 mice; i.p.; high dose of 10 mg/kg; compared to Veh-MK-801 (0.1 mg/kg). An excerpt: (viii) Inhibitory Avoidance in Mouse
Specifically in the hippocampus CA1 area, N-methyl-D-aspartic acid (NMDA) receptors are known to regulate synaptic plasticity, long term-potentiation (LTP), and learning and memory processes, including short- and long-term memories. […] The inhibitory avoidance task involves the uses of a two-compartment step through apparatus (Ugo Basile, Collegeville, Pa.) that measures the animal's ability to remember a brief noxious stimulus (foot shock), and is considered a measure of trial learning, and memory. (Bitner, R. S., et al. J. Neurosci. 2007, 27(39), 10578-10587). The purpose of this experiment was to test the ability of a 5HTc agonist to attenuate MK-801-induced deficits in the 24-hour inhibitory avoidance test. Effects against MK-801-induced cognitive impairment may indicate a potential efficacy in treating cognitive deficits of schizophrenia.
Following a 2 hour habituation period, CD1 mice first received i.p. treatment with the test compound at 0, 1, 3, 10 mg/kg. 20 minutes later mice then received either MK-801 at 0.1 mg/kg (dissolved in 0.3% tartaric acid) or vehicle (Veh, water). […] The latency to enter the adjoining dark chamber was recorded, and an inescapable foot shock (0.3 mA, 1 second duration) was presented to the mouse. […] The latency to enter the dark chamber was recorded and was the dependent variable measured for assessing memory retention.

Entries after “also recorded” stand apart in the source; their conditions may differ.

Turning to `CN1C[C@@H]2CNC(=O)c3cc(-c4ccc(F)cc4)ccc3[C@H]2C1` [Example 115, (3aS,10bS)-8-(4-Fluorophenyl)-2-methyl-1,2,3,3a,4,5-hexahydrobenzo[e]pyrrolo[3,4-c]azepin-6(10bH)-one], in data set [1], the “total transfer latency of trial 2 to trial 5” value is “dose-dependent increase in transfer latencies; also recorded: dose-dependent improvement in 5-trial inhibitory avoidance scores”. The spontaneous activity entry in data set [2] (after ip test compound, before psychostimulant) is reported as “without affecting spontaneous activity”. In addition, in data set [2] (test compound ip 30 min before d-amphetamine 2.0 mg/kg sc), the AMP-induced hyperactivity entry was “attenuated AMP-induced hyperactivity in mice significantly and in a dose dependent manner; also recorded: attenuating the affect of d-amphetamine (AMP)”. Moreover, the “conditioned avoidance behavior (avoided responses)” value in data set [3] (acute, 30 minutes before session) is recorded as “significantly suppressed conditioned avoidance behavior”. Moreover, in data set [3] (indicator of sedation or extrapyramidal side effects), the number of failures entry is “without affecting the number of failures”. The “transfer latency, 24-hour inhibitory avoidance” value in data set [4] is reported as “significantly increased transfer latencies; also recorded: dose-dependent improvement in mouse 24-hour inhibitory avoidance scores”.
